For four cell lines, relative viability results are on record in the supplement of paper PMC10307832.

Test in all cases: relative viability (nuclei count vs DMSO), 5 days (fraction); higher = more cells survive
Compound in the assay “Cabozantinib + OSI-027”: COc1cc2nccc(Oc3ccc(NC(=O)C4(C(=O)Nc5ccc(F)cc5)CC4)cc3)c2cc1OC [Cabozantinib] + COc1cccc2cc(-c3nc([C@H]4CC[C@H](C(=O)O)CC4)n4ncnc(N)c34)[nH]c12 [OSI-027] (partner 0.5 µM)
An outline of the steps: (§1)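 Relative viability equals treated-well nuclei counts divided by vehicle-well nuclei counts. Counts came from 4× images of lung cancer cell lines grown in 1536-well plates for 5 days after pin-tool dosing on the day after seeding. Dosing used one drug alone or a fixed anchor-drug dose plus five library-drug doses (not always all listed) in √10 steps, and values are medians of duplicate plates.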

Compound in the assay “Zosuquidar + Palbociclib”: O[C@@H](COc1cccc2ncccc12)CN1CCN([C@@H]2c3ccccc3[C@@H]3[C@H](c4ccccc42)C3(F)F)CC1 [Zosuquidar] + CC(=O)c1c(C)c2cnc(Nc3ccc(N4CCNCC4)cn3)nc2n(C2CCCC2)c1=O [Palbociclib] (partner 0.5 µM)
The essentials:
as §1

Compound in the assay “Zosuquidar + Foretinib”: O[C@@H](COc1cccc2ncccc12)CN1CCN([C@@H]2c3ccccc3[C@@H]3[C@H](c4ccccc42)C3(F)F)CC1 [Zosuquidar] + COc1cc2c(Oc3ccc(NC(=O)C4(C(=O)Nc5ccc(F)cc5)CC4)cc3F)ccnc2cc1OCCCN1CCOCC1 [Foretinib] (partner 0.25 µM)
An outline of the steps: as §1

Compound in the assay “Zosuquidar + Pictilisib”: O[C@@H](COc1cccc2ncccc12)CN1CCN([C@@H]2c3ccccc3[C@@H]3[C@H](c4ccccc42)C3(F)F)CC1 [Zosuquidar] + CS(=O)(=O)N1CCN(Cc2cc3nc(-c4cccc5[nH]ncc45)nc(N4CCOCC4)c3s2)CC1 [Pictilisib] (partner 1 µM)
The essentials:
as §1

For the cell line NCI-H1755, the relative viability was found to be 0.627 with Cabozantinib + OSI-027 (first compound 0.02 µM); 0.729 with Cabozantinib + OSI-027 (first compound 0.06325 µM); 0.775 with Cabozantinib + OSI-027 (first compound 0.2 µM); 0.585 with Cabozantinib + OSI-027 (first compound 0.6325 µM); 0.575 with Cabozantinib + OSI-027 (first compound 2 µM); 0.47 with Zosuquidar + Palbociclib (first compound 0.01 µM). Also, the relative viability stood at 0.461 with Zosuquidar + Palbociclib (first compound 0.03162 µM); 0.464 with Zosuquidar + Palbociclib (first compound 0.1 µM); 0.441 in the assay with Zosuquidar + Palbociclib (first compound 0.3162 µM); 0.454 with Zosuquidar + Palbociclib (first compound 1 µM); 0.908 with Zosuquidar + Foretinib (first compound 0.01 µM); 0.894 with Zosuquidar + Foretinib (first compound 0.03162 µM). Besides, the relative viability with Zosuquidar + Foretinib (first compound 0.1 µM) is 0.841; with Zosuquidar + Foretinib (first compound 0.3162 µM), 0.959; with Zosuquidar + Foretinib (first compound 1 µM), 0.932; in the assay with Zosuquidar + Pictilisib (first compound 0.01 µM) it was 0.415; with Zosuquidar + Pictilisib (first compound 0.03162 µM) it was 0.452; in the assay with Zosuquidar + Pictilisib (first compound 0.1 µM), 0.318. For the same cell line, the relative viability with Zosuquidar + Pictilisib (first compound 0.3162 µM) came out at 0.497; with Zosuquidar + Pictilisib (first compound 1 µM), 0.484.
Consider NCI-H1793, for which the relative viability in the assay with Cabozantinib + OSI-027 (first compound 0.02 µM) amounted to 0.196; with Cabozantinib + OSI-027 (first compound 0.06325 µM), 0.254; with Cabozantinib + OSI-027 (first compound 0.2 µM) it was 0.198; with Cabozantinib + OSI-027 (first compound 0.6325 µM), 0.253; with Cabozantinib + OSI-027 (first compound 2 µM) it was 0.197; in the assay with Zosuquidar + Palbociclib (first compound 0.01 µM), 0.271. In addition, the relative viability with Zosuquidar + Palbociclib (first compound 0.3162 µM) was 0.333; with Zosuquidar + Palbociclib (first compound 1 µM), 0.306; in the assay with Zosuquidar + Foretinib (first compound 0.01 µM) it was 0.747; with Zosuquidar + Foretinib (first compound 0.03162 µM) it was 0.914; with Zosuquidar + Foretinib (first compound 0.3162 µM), 0.896; with Zosuquidar + Foretinib (first compound 1 µM), 0.641. In addition, the relative viability with Zosuquidar + Pictilisib (first compound 0.01 µM) is 0.483; with Zosuquidar + Pictilisib (first compound 0.03162 µM) it was 0.383; with Zosuquidar + Pictilisib (first compound 0.3162 µM), 0.357; with Zosuquidar + Pictilisib (first compound 1 µM), 0.297.
As to NCI-H1915, the relative viability with Cabozantinib + OSI-027 (first compound 0.02 µM) is 0.627; in the assay with Cabozantinib + OSI-027 (first compound 0.06325 µM) it was 0.623; with Cabozantinib + OSI-027 (first compound 0.2 µM) it was 0.631; in the assay with Cabozantinib + OSI-027 (first compound 0.6325 µM) it was 0.589; with Cabozantinib + OSI-027 (first compound 2 µM), 0.593; with Zosuquidar + Palbociclib (first compound 0.01 µM) it was 0.501. The relative viability with Zosuquidar + Palbociclib (first compound 0.03162 µM) turned out to be 0.542; in the assay with Zosuquidar + Palbociclib (first compound 0.1 µM), 0.501; with Zosuquidar + Palbociclib (first compound 0.3162 µM), 0.635; in the assay with Zosuquidar + Palbociclib (first compound 1 µM), 0.507; with Zosuquidar + Foretinib (first compound 0.01 µM) it was 0.951; with Zosuquidar + Foretinib (first compound 0.03162 µM), 1.11. Besides, the relative viability in the assay with Zosuquidar + Foretinib (first compound 0.1 µM) is 1.07; with Zosuquidar + Foretinib (first compound 0.3162 µM), 1.12; with Zosuquidar + Foretinib (first compound 1 µM), 1.13; in the assay with Zosuquidar + Pictilisib (first compound 0.01 µM), 0.9; with Zosuquidar + Pictilisib (first compound 0.03162 µM), 0.919; with Zosuquidar + Pictilisib (first compound 0.1 µM), 0.903. The figures for the relative viability in the assay with Zosuquidar + Pictilisib (first compound 0.3162 µM) and in the assay with Zosuquidar + Pictilisib (first compound 1 µM) were 1.02 and 0.967, respectively.
Regarding NCI-H1944, the relative viability in the assay with Cabozantinib + OSI-027 (first compound 0.02 µM) amounted to 0.282; with Cabozantinib + OSI-027 (first compound 0.06325 µM), 0.425; in the assay with Cabozantinib + OSI-027 (first compound 0.2 µM), 0.389; with Cabozantinib + OSI-027 (first compound 0.6325 µM), 0.444; with Cabozantinib + OSI-027 (first compound 2 µM), 0.402; with Zosuquidar + Palbociclib (first compound 0.01 µM), 0.343. In addition, the relative viability worked out at 0.358 in the assay with Zosuquidar + Palbociclib (first compound 0.03162 µM); 0.342 in the assay with Zosuquidar + Palbociclib (first compound 0.1 µM); 0.391 in the assay with Zosuquidar + Palbociclib (first compound 0.3162 µM); 0.319 with Zosuquidar + Palbociclib (first compound 1 µM); 0.774 in the assay with Zosuquidar + Foretinib (first compound 0.01 µM); 0.862 with Zosuquidar + Foretinib (first compound 0.03162 µM). The relative viability with Zosuquidar + Foretinib (first compound 0.1 µM) was 0.898; in the assay with Zosuquidar + Foretinib (first compound 0.3162 µM) it was 0.883; with Zosuquidar + Foretinib (first compound 1 µM), 0.824; with Zosuquidar + Pictilisib (first compound 0.01 µM), 0.342; in the assay with Zosuquidar + Pictilisib (first compound 0.03162 µM) it was 0.337; with Zosuquidar + Pictilisib (first compound 0.1 µM), 0.312. Besides, the relative viability stood at 0.363 with Zosuquidar + Pictilisib (first compound 0.3162 µM) and 0.349 with Zosuquidar + Pictilisib (first compound 1 µM).
